Test results taken from patent US20250352498A1, “PHARMACEUTICAL FORMULATIONS CONTAINING PHENYLBUTYRATE AND METHODS THEREOF” (AARDVARK THERAPEUTICS INC., priority 2024, published 2025).

solubility in hydrophilic solvent (hydrophilic solvent): highly soluble | solubility in hydrophobic excipients (hydrophobic excipients): poorly soluble | water solubility (water): freely water soluble
Substance: sodium phenylbutyrate
